Laboratory results published in PMC9537572, “Elucidation of the binding mechanism of astragaloside IV derivative with human serum albumin and its cardiotoxicity in zebrafish embryos” (Frontiers in Pharmacology, 2022).
Like-named read-outs stand apart in the source and are kept apart here.

Target: HSA (Homo sapiens, UniProt P02768)
Test: Site marker competitive experiments (warfarin, ibuprofen) by equilibrium dialysis
Assay type: in vitro ADME
Details: drug 0.476 mg/ml, n = 3, read-out: Plasma protein binding (converted)
Experimental: The site marker competitive experiments were performed using two classical site probes, warfarin and ibuprofen, which were selected as the markers of subdomain IIA (site I) and subdomain IIIA (site II) separately of HAS ([Ghuman et al., 2005]). The procedure was consistent with the method described in section 2.5, except that the concentrations of AGS IV and LS-102 were both fixed at 0.476 mg/ml, while the external dialysis solution was changed to contain the probe with a final concentration of 0, 0.06, 0.3, 1.2 mg/ml PBS solution. Briefly, the AGS IV/LS-102 HSA mixture (0.5 ml drug and 0.5 ml HSA) was separately incubated with three different concentrations of probe to evaluate the effects of warfarin or ibuprofen on drug-protein binding influence. Three replicates of each concentration were prepared. After equilibrium dialysis, the internal and external dialysates were analyzed by UHPLC-MS/MS.

HSA, sequence (P02768 25-609): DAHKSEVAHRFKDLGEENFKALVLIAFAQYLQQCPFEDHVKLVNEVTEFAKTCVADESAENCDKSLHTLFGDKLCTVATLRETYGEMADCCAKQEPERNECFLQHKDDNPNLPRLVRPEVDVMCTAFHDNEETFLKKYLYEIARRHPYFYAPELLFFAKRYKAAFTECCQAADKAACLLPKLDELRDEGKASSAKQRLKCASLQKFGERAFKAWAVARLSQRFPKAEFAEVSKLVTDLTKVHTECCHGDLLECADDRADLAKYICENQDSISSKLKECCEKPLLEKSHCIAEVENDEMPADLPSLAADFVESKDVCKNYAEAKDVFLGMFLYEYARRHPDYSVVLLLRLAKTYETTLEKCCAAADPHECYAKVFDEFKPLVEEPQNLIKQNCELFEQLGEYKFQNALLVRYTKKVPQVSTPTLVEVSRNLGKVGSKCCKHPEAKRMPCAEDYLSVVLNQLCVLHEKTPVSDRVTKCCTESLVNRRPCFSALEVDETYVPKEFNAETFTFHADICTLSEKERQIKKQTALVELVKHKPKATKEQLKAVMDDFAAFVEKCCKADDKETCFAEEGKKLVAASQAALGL

Q: How did the fraction unbound at 72 h, 0.476 mg/ml (with ibuprofen 0.06 mg/ml) turn out when CC(C)(O)C1CCC(C)(C2C(O)CC3(C)C4CC(OC5OC(C(=O)O)C(O)C(O)C5O)C5C(C)(C)C(OC6OCC(O)C(O)C6O)CCC56CC46CCC23C)O1 (stereo not shown) [LS-102, astragalosidic acid] was run?
A: 0.368

Q: And the fraction unbound at 72 h, 0.476 mg/ml (with ibuprofen 0.3 mg/ml)?
A: 0.248

Q: And the fraction unbound at 72 h, 0.476 mg/ml (with ibuprofen 1.2 mg/ml)?
A: 0.28

Q: What about the fraction unbound at 72 h, 0.476 mg/ml (with warfarin 0.06 mg/ml) of the same compound?
A: 0.467

Q: What about the fraction unbound at 72 h, 0.476 mg/ml (with warfarin 0.3 mg/ml) of the same compound?
A: 0.411

Q: What about the fraction unbound at 72 h, 0.476 mg/ml (with warfarin 1.2 mg/ml) of the same compound?
A: 0.453

Q: What about the fraction unbound at 72 h, 0.476 mg/ml (without site markers) of the same compound?
A: 0.331
